Results: patent US8329904B2, “Azacyclic derivatives” (Hoffmann-La Roche Inc., priority 2009, dated 2012)

Each compound was assayed against T1, human HSL (Homo sapiens, UniProt Q05469) (assay: Human Hormone-Sensitive Lipase (HSL) Enzyme Inhibition Assay). Conditions: colorimetric assay, 2,3-dimercapto-1-propanol tributyrate (DMPT) substrate, 37° C. for 20 minutes, absorbance at 405 nm; read-out: HSL hum IC50.
T1 construct: overlapping PCR to generate a full length human HSL ORF with a 3′-His6 tag; His6 (C); made in house; host or cells: High 5 insect cells (baculovirus, pFast-BAC)
T1 sequence (Q05469 1-1076): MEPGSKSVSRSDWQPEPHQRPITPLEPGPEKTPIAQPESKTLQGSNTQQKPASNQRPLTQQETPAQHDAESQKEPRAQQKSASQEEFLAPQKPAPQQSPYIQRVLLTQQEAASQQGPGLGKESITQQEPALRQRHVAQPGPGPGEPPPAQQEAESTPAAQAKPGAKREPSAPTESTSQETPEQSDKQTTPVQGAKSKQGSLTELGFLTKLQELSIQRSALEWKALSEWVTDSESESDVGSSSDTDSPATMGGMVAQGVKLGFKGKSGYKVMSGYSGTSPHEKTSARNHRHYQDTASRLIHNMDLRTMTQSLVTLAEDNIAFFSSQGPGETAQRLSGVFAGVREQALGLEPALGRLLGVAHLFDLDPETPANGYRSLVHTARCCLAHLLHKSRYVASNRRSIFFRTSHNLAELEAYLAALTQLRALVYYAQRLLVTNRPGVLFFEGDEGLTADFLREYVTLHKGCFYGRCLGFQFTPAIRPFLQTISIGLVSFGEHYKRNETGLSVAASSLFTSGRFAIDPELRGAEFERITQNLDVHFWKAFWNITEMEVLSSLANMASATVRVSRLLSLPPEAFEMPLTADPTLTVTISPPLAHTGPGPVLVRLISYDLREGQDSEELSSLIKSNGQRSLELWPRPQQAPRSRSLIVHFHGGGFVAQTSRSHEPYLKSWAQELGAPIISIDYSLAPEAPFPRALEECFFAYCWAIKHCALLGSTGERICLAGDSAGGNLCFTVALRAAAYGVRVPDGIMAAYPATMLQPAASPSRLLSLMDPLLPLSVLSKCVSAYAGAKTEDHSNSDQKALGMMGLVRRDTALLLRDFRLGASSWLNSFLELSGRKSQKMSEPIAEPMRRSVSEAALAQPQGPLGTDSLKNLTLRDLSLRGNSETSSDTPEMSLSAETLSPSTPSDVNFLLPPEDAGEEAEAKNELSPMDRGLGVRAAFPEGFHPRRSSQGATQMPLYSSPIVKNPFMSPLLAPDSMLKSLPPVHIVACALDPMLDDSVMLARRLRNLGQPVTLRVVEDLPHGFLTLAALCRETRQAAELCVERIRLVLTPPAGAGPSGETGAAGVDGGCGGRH
Type: biochemical
Procedure: Production of Human Full Length Hormone Sensitive Lipase-His^6
1) Cloning: cDNA was prepared from commercial human brain polyA-+ RNA and used as a template in overlapping PCR to generate a full length human HSL ORF with a 3′-His6 tag. This full length insert was cloned into the pFast-BAC vector and the DNA-sequence of several single clones was verified. DNA from a correct full length clone with the 3′His6 tag was used to transform the E. coli strain DH10BAC. Resulting bacmid DNA was used to generate a titered baculovirus stock for protein generation.
Cells were thawed. […] was done at 3×30 sec., Lubrol PX was added to 0.2% final concentration followed by stirring for 15 min. at 4° C. and centrifugation at 25 k×g, 60 min., 4° C. […] Supernatant was removed, the resin washed in the centrifuge vessel using 5 volumes of Base Buffer containing 0.2% Lubrol PX. Centrifugation was done again, then the supernatant discarded. The resin wass poured onto a 0.8 μm membrane in a disposable filter unit (Nalge 450-0080), and washed with 5 volumes of Base Buffer containing 0.2% Lubrol PX. It was then washed with 30 volumes of Base Buffer containing 60 mM imidazole pH 7.5 at 4° C. The protein was eluated with 5 volumes of 25 mM Tris-Cl, 300 mM NaCl, 200 mM imidazole, 10 mM 2-mercaptoethanol, pH 7.5 at 4° C. by tumbling resin with buffer end-over-end, 30 min., 4° C. The resin was captured on a 0.2 μm membrane disposable filter unit (Millipore SCGP U02 RE) and the eluate collected in the reservoir. The eluate was concentrated using a 30 k MWCO centrifugal filter device (Sartorius Vivascience Vivacell 100, VC1022), to 20 ml. It was then dialyzed overnight at 4° C., two times against 2 L of 10% glycerol, 25 mM Tris-Cl, 300 mM NaCl, 0.2 mM EDTA, 0.2 mM DTT, pH 7.5 at 4° C. The protein was filtered using a 0.22 μm disposable filter unit (Millipore SCGP00525). The protein concentration was calculated from absorbance at 280 nm, using 280=0.67 cm-1 mg-1. […] The protein was stored at −80° C.
Human Hormone-Sensitive Lipase (HSL) Enzyme Inhibition Assay:
HSL enzyme activity was measured by a colorimetric assay using 2,3-dimercapto-1-propanol tributyrate (Aldrich, St. Louis, Mo.) as a substrate. Typically, 1.5 mM 2,3-dimercapto-1-propanol tributyrate (DMPT) in 100 mM MOPS, pH 7.2, 0.2 mg/ml fatty acid-free BSA was prepared by sonication at 4° C. to homogenous suspension. Test compounds (2 mM stock in DMSO) were diluted 3 fold in series in DMSO. Compound solutions were diluted 24 fold in 1.5 mM DMPT containing solution and 18 ul per well was added to 384-well microplates (Corning Costar). Twelve microliters per well of human HSL (15 ug/ml) was added and the reaction mixture was incubated at 37° C. for 20 minutes. Six microliters of 12 mM dithio-bis-(2-nitrobenzoic acid) (DTNB) in DMSO plus 1.2% SDS and 0.6% Triton X-100 were added and the mixture was incubated at room temperature for 15 minutes. Product production was monitored by reading absorbance at 405 nm on an Envision Reader (PerkinElmer Life and Analytical Sciences, Shelton, Conn.).

`CCC(C)c1ccc(N2CCC3(CCN(C(=O)CC(C)(C)C)CC3)C2=O)cc1` (stereo not shown) [Example 46, 2-(4-sec-Butyl-phenyl)-8-(3,3-dimethyl-butyryl)-2,8-diaza-spiro[4.5]decan-1-one] was tested. Which IC50 did it give?
The IC50 was 150 nM.

With `O=C1N(CCc2ccc(Cl)cc2)CCC12CCN(S(=O)(=O)c1ccccc1Cl)CC2` [Example 47, 8-(2-Chloro-benzenesulfonyl)-2-[2-(4-chloro-phenyl)-ethyl]-2,8-diaza-spiro[4.5]decan-1-one] as the compound, how does the IC50 read?
The IC50 was 40 nM.

With `CS(=O)(=O)Oc1ccc(N2CCC3(CCN(S(=O)(=O)c4ccccc4Cl)CC3)C2=O)cc1` [Example 48, Methanesulfonic acid 4-[8-(2-chloro-benzenesulfonyl)-1-oxo-2,8-diaza-spiro[4.5]dec-2-yl]-phenyl ester] as the compound, how does the IC50 read?
Its IC50 is 30 nM.

Which IC50 does the source give for `O=C1N(Cc2ccc(OC(F)(F)F)cc2)CCC12CCN(S(=O)(=O)c1ccccc1Cl)CC2` [Example 49, 8-(2-Chloro-benzenesulfonyl)-2-(4-trifluoromethoxy-benzyl)-2,8-diaza-spiro[4.5]decan-1-one] here?
The IC50 was 150 nM.

For `Cc1ccc(S(=O)(=O)N2CCC3(CCN(c4ccc(OS(C)(=O)=O)cc4)C3=O)CC2)s1` [Example 50, Methanesulfonic acid 4-[8-(5-methyl-thiophene-2-sulfonyl)-1-oxo-2,8-diaza-spiro[4.5]dec-2-yl]-phenyl ester], which IC50 is on record?
The IC50 was 60 nM.

For `CS(=O)(=O)c1ccccc1S(=O)(=O)N1CCC2(CCN(c3ccc(OC(F)(F)F)cc3)C2=O)CC1` [Example 51, 8-(2-Methanesulfonyl-benzenesulfonyl)-2-(4-trifluoromethoxy-phenyl)-2,8-diaza-spiro[4.5]decan-1-one], which IC50 is on record?
The IC50 was 140 nM.

For `CCc1ccc(N2CCC3(CCN(S(=O)(=O)c4ccccc4S(C)(=O)=O)CC3)C2=O)cc1` [Example 52, 2-(4-Ethyl-phenyl)-8-(2-methanesulfonyl-benzenesulfonyl)-2,8-diaza-spiro[4.5]decan-1-one], which IC50 is on record?
The IC50 was 210 nM.

How did the IC50 turn out when `CC(C)(C)CS(=O)(=O)N1CCC2(CCN(c3ccc(OS(C)(=O)=O)cc3)C2=O)CC1` [Example 53, Methanesulfonic acid 4-[8-(2,2-dimethyl-propane-1-sulfonyl)-1-oxo-2,8-diaza-spiro[4.5]dec-2-yl]-phenyl ester] was run?
Its IC50 is 110 nM.

How did the IC50 turn out when `CCc1ccc(N2CCC3(CCN(S(=O)(=O)c4ccccc4OC(F)(F)F)CC3)C2=O)cc1` [Example 54, 2-(4-Ethyl-phenyl)-8-(2-trifluoromethoxy-benzenesulfonyl)-2,8-diaza-spiro[4.5]decan-1-one] was run?
Its IC50 is 30 nM.

Which IC50 does the source give for `O=C1N(c2ccc(OC(F)(F)F)cc2)CCC12CCN(S(=O)(=O)c1ccccc1OC(F)(F)F)CC2` [Example 55, 8-(2-Trifluoromethoxy-benzenesulfonyl)-2-(4-trifluoromethoxy-phenyl)-2,8-diaza-spiro[4.5]decan-1-one] here?
The IC50 was 20 nM.

For `CS(=O)(=O)Oc1ccc(N2CCC3(CCN(S(=O)(=O)c4ccccc4OC(F)(F)F)CC3)C2=O)cc1` [Example 56, Methanesulfonic acid 4-[1-oxo-8-(2-trifluoromethoxy-benzenesulfonyl)-2,8-diaza-spiro[4.5]dec-2-yl]-phenyl ester], which IC50 is on record?
The IC50 was 20 nM.

For `CCCc1ccc(N2CCC3(CCN(S(=O)(=O)c4ccccc4S(C)(=O)=O)CC3)C2=O)cc1` [Example 57, 8-(2-Methanesulfonyl-benzenesulfonyl)-2-(4-propyl-phenyl)-2,8-diaza-spiro[4.5]decan-1-one], which IC50 is on record?
The IC50 was 140 nM.

With `CCCc1ccc(N2CCC3(CCN(S(=O)(=O)c4ccccc4OC(F)(F)F)CC3)C2=O)cc1` [Example 58, 2-(4-Propyl-phenyl)-8-(2-trifluoromethoxy-benzenesulfonyl)-2,8-diaza-spiro[4.5]decan-1-one] as the compound, how does the IC50 read?
Its IC50 is 40 nM.

How did the IC50 turn out when `CS(=O)(=O)Oc1ccc(N2CCC3(CCN(S(=O)(=O)c4cccs4)CC3)C2=O)cc1` [Example 59, Methanesulfonic acid 4-[1-oxo-8-(thiophene-2-sulfonyl)-2,8-diaza-spiro[4.5]dec-2-yl]-phenyl ester] was run?
The IC50 was 30 nM.

`CC(C)CS(=O)(=O)N1CCC2(CCN(c3ccc(CC(F)(F)F)cc3)C2=O)CC1` [Example 60, 8-(2-Methyl-propane-1-sulfonyl)-2-[4-(2,2,2-trifluoro-ethyl)-phenyl]-2,8-diaza-spiro[4.5]decan-1-one] was tested. Which IC50 did it give?
Its IC50 is 40 nM.

`CCC(C)c1ccc(N2CCC3(CCN(S(=O)(=O)CC(C)C)CC3)C2=O)cc1` (stereo not shown) [Example 61, 2-(4-sec-Butyl-phenyl)-8-(2-methyl-propane-1-sulfonyl)-2,8-diaza-spiro[4.5]decan-1-one] was tested. Which IC50 did it give?
The IC50 was 70 nM.

How did the IC50 turn out when `CC(C)CS(=O)(=O)N1CCC2(CCN(c3ccc(OS(C)(=O)=O)cc3)C2=O)CC1` [Example 62, Methanesulfonic acid 4-[8-(2-methyl-propane-1-sulfonyl)-1-oxo-2,8-diaza-spiro[4.5]dec-2-yl]-phenyl ester] was run?
The IC50 was 250 nM.

With `CC(C)CS(=O)(=O)N1CCC2(CCN(c3ccc(OCC(F)(F)F)cc3)C2=O)CC1` [Example 63, 8-(2-Methyl-propane-1-sulfonyl)-2-[4-(2,2,2-trifluoro-ethoxy)-phenyl]-2,8-diaza-spiro[4.5]decan-1-one] as the compound, how does the IC50 read?
The IC50 was 210 nM.

`CC(C)CS(=O)(=O)N1CCC2(CCN(c3ccc(OS(=O)(=O)C4CC4)cc3)C2=O)CC1` [Example 64, Cyclopropanesulfonic acid 4-[8-(2-methyl-propane-1-sulfonyl)-1-oxo-2,8-diaza-spiro[4.5]dec-2-yl]-phenyl ester] was tested. Which IC50 did it give?
The IC50 was 220 nM.

Which IC50 does the source give for `CC(C)CS(=O)(=O)N1CCC2(CCN(c3ccc(C4CC4)cc3)C2=O)CC1` [Example 65, 2-(4-Cyclopropyl-phenyl)-8-(2-methyl-propane-1-sulfonyl)-2,8-diaza-spiro[4.5]decan-1-one] here?
The IC50 was 100 nM.

With `CC(C)CS(=O)(=O)N1CCC2(CCN(c3ccc(OC4CCCC4)cc3)C2=O)CC1` [Example 66, 2-(4-Cyclopentyloxy-phenyl)-8-(2-methyl-propane-1-sulfonyl)-2,8-diaza-spiro[4.5]decan-1-one] as the compound, how does the IC50 read?
Its IC50 is 160 nM.

For `CCc1ccc(N2CCC3(CCN(S(=O)(=O)c4ccccc4C(F)(F)F)CC3)C2=O)cc1` [Example 67, 2-(4-Ethyl-phenyl)-8-(2-trifluoromethyl-benzenesulfonyl)-2,8-diaza-spiro[4.5]decan-1-one], which IC50 is on record?
The IC50 was 60 nM.
